Patent US20240190904A1, “Heteroaryl compounds as inhibitors of RIP2 kinase, composition and application thereof” (Accro Bioscience (HK) Limited, priority 2021, published 2024)

Key:
Format in all cases: in vitro ADME
[1] = Protein binding test (dialysis), rat; details: for fraction unbound at 5 h, 1 μM: rat plasma
Protocol: • 1. Spiking Solutions of Test and Reference Compounds • 1.1 Solution A (0.5 mM): Add 10 μL of 10 mM stock solution into 190 μL of DMSO. • 1.2 Solution B (0.02 mM): Add 8 μL of Solution A into 192 μL of 0.05 M sodium phosphate buffer. The final DMSO concentration in Solution B is 4%. • 2. Preparation of Test and Reference Compounds • 2.1 Preload a 96-well plate with 380 μL aliquots of plasma in the wells designated for plasma and buffer, respectively. • 2.2 Spike 20 μL of Solution B (0.02 mM of test and reference compounds) into the pre-loaded plasma in the 96-well plate. The final test concentration is 1 μM containing 0.2% DMSO. • 3. Dialysis Sample Loading • 3.1 Preparing plasma against buffer system (duplicate): Apply aliquots of 100 μL of blank dialysis buffer to the receiver side of dialysis chambers. Then apply aliquots of 100 μL of the plasma spiked with test and reference compounds to the donor side of the dialysis chambers. • 3.2 Preparing T0 plasma samples for initial concentrations (duplicate): • 3.2.1 Aliquot 25 μL of the plasma spiked with test and reference compounds into a 96-well sample preparation plate as T0 plasma samples • 3.2.2 Mix the aliquots with same volume of blank buffer (50:50, v/v). • 3.2.3 Quench the samples with 200 μL of acetonitrile containing internal standard (IS). • 3.3 Cover the dialysis block with a plastic lid and place the entire apparatus in a shaker (60 rpm) for 5 hours at 37° C. • 3.4 Preparing dialyzed samples after 5-hour incubation: • 3.4.1 Aliquot 25 μL from both the donor sides and receiver sides of the dialysis apparatus into new sample preparation plates and mix the aliquots with same volume of opposite matrixes (blank buffer to plasma and vice versa). • 3.4.2 Quench the samples with 200 μL acetonitrile containing internal standard (IS). Vortex all the samples (from 0 h and 5 h) at 600 rpm for 10 min followed by centrifugation at 5594 g for 15 minutes (ThermoMultifuge×3R). • 3.4.3 Transfer 50 μL of the supernatants to a new 96-well plate and mix the samples with 50 μL of Milli-Q water. Cover the sample plate and store it in a freezer (−20° C.) until LC/MS/MS analysis.

[2] = Metabolic stability test, RLM; details: rat, liver microsomes; for CLint scaled at 1 μM: pH 7.4, read-out: Cl (mL/min/kg) RLM; for half-life at 1 μM: pH 7.4, read-out: T1/2 (min) RLM
Protocol: • 1. Buffers: • Buffer A: 1.0 L of 0.1 M monobasic Potassium Phosphate buffer containing 1.0 mM EDTA • Buffer B: 1.0 L of 0.1 M Dibasic Potassium Phosphate buffer containing 1.0 mM EDTA • Buffer C: 0.1 M Potassium Phosphate buffer, 1.0 mM EDTA, pH 7.4 by titrating 700 mL of buffer B with buffer A while monitoring with the pH meter. • 2. Reference compounds (Ketanserin) and test compounds spiking solution: • 500 μM spiking solution: add 10 μL of 10 mM DMSO stock solution into 190 μL ACN. • 1.5 μM spiking solution in microsomes (0.75 mg/mL): add 1.5 μL of 500 μM spiking solution and 18.75 μL of 20 mg/mL liver microsomes into 479.75 μL of Buffer C on ice. • 3. Prepare NADPH stock solution (6 mM) by dissolving NADPH into buffer C. • 4. Dispense 30 μL of 1.5 μM spiking solution containing 0.75 mg/mL microsomes solution to the assay plates designated for different time points (0-, 5-, 15-, 30-, 45-min) on ice. • 5. For 0-min time point, add 135 μL of ACN containing IS to the wells of 0-min plate and then add 15 μL of NADPH stock solution (6 mM). • 6. Pre-incubate all other plates at 37° C. for 5 minutes. • 7. Add 15 μL of NADPH stock solution (6 mM) to the plates to start the reaction and timing. • 8. At 5-min, 15-min, 30-min, and 45-min, add 135 μL of ACN containing IS to the wells of corresponding plates, respectively, to stop the reaction. • 9. After quenching, shake the plates at the vibrator (IKA, MTS 2/4) for 10 min (600 rpm/min) and then centrifuge at 5594 g for 15 min (ThermoMultifuge×3R). • 10. Transfer 50 μL of the supernatant from each well into a 96-well sample plate containing 50 μL of ultra pure water (Millipore, ZMQS50F01) for LC/MS analysis.

Caco-2 permeability test = details: human, Caco-2, pH 7.4
Protocol: • 1. Prewarm HBSS Buffer in 37° C. water bath • 2. Take compounds from −20° C., sonicate for a few minutes (no less than 1 minute) • 3. Solution preparation
For A-to-B direction: • HBSS buffer with 0.3% DMSO and 5 μM LY: add 150 μL DMSO and 50 μL LY (5 mM) into 50 ml HBSS buffer (pH7.4). • HBSS buffer with 0.1% DMSO and 5 μM LY: add 50 μL DMSO and 50 μL LY (5 mM) into 50 mL HBSS buffer (pH7.4).
For B-to-A direction: • HBSS buffer with 0.3% DMSO: add 150 μL DMSO into 50 ml HBSS buffer (pH7.4) • HBSS buffer with 0.1% DMSO: add 50 μL DMSO into 50 ml HBSS buffer (pH7.4).
Receiver Solution Buffer:
Prepare HBSS buffer with 0.4% DMSO: add 200 μL DMSO into 50 ml HBSS buffer (pH7.4).
For B-to-A direction: • Prepare HBSS buffer with 0.4% DMSO and 5 uM LY: add 200 μL DMSO and 50 μL LY (5 mM) into 50 ml HBSS buffer (pH7.4).
Take cell culture plate out of incubator, wash the cell monolayers with HBSS buffer, and then measure TEER values at Rm temperature. • 5. Centrifuge the compound solution (from step 3) at 4000 rpm for 5 min before loading to donor chambers. • 6. Add solution based on the volumes listed in the following table (make sure to take extra 100 uL of donor sample for T0 as Backup).
• 7. To determine LY concentration in the apical chamber, take 100 μL sample from apical chambers into an opaque plate for LYT0. • 8. Prewarm apical and basolateral plates at 37° C. for about 5 min, then begin transport by placing the apical plate onto basolateral plate. • 9. Keep the plates in incubator at 37° C. for 90 min • 10. Prepare 20× solution
• 11. Separate the apical plate from the basolateral plate after 90-min incubation. • 12. Take 100 μL samples from basolateral plate to an opaque plate as LYT90. • 13. Measure LY concentrations for LYT0 and LYT90 by Fluorometer (at excitation of 485 nm/emission of 535 nm). • 14. Sample preparation for LC-MS/MS: Donor or receiver samples are diluted by 0.4% DMSO HBSS, then mix with ACN with IS (Osalmid or Imipramine)

[3] = efflux ratio, read-out: Caco-2 Permeability B-A/A-B

## COc1cc2nccc(Nc3ccc4scnc4c3)c2cc1P(C)(C)=O [A6]
[1]
  fraction unbound at 5 h, 1 μM: 0.019
[2]
  CLint scaled at 1 μM: 25.9 mL/min/kg
  half-life at 1 μM: 95.7 min
Caco-2 permeability test; A-B
  Papp A→B at 90 min: 15.2 ×10⁻⁶ cm/s
Caco-2 permeability test; B-A
  Papp B→A at 90 min: 33 ×10⁻⁶ cm/s
Caco-2 permeability test; [3]
  efflux ratio at 90 min: 2.18

## CP(C)(=O)c1cc2c(Nc3ccc4scnc4c3)ccnc2cc1OC1COC1 [A16]
[1]
  fraction unbound at 5 h, 1 μM: 0.069
[2]
  CLint scaled at 1 μM: 16.9 mL/min/kg
  half-life at 1 μM: 147 min
Caco-2 permeability test; A-B
  Papp A→B at 90 min: 2.16 ×10⁻⁶ cm/s
Caco-2 permeability test; B-A
  Papp B→A at 90 min: 31.1 ×10⁻⁶ cm/s
Caco-2 permeability test; [3]
  efflux ratio at 90 min: 14.4

## CP(C)(=O)c1cc2c(Nc3ccc4scnc4c3)ccnc2cc1O[C@H]1CCOC1 [A14]
[1]
  fraction unbound at 5 h, 1 μM: 0.073
[2]
  CLint scaled at 1 μM: 38.6 mL/min/kg
  half-life at 1 μM: 64.4 min
Caco-2 permeability test; A-B
  Papp A→B at 90 min: 7 ×10⁻⁶ cm/s
Caco-2 permeability test; B-A
  Papp B→A at 90 min: 35.9 ×10⁻⁶ cm/s
Caco-2 permeability test; [3]
  efflux ratio at 90 min: 5.13

## CP(C)(=O)c1cc2c(Nc3ccc4scnc4c3)ccnc2cc1OCCO [A7, (4-(benzo[d]thiazol-5-ylamino)-7-(2-hydroxyethoxy)quinolin-6-yl)dimethylphosphine oxide]
[2]
  CLint scaled at 1 μM: 17 mL/min/kg
  half-life at 1 μM: 146 min
Caco-2 permeability test; A-B
  Papp A→B at 90 min: 0.5 ×10⁻⁶ cm/s
Caco-2 permeability test; B-A
  Papp B→A at 90 min: 10.2 ×10⁻⁶ cm/s
Caco-2 permeability test; [3]
  efflux ratio at 90 min: 20.5

## CP(C)(=O)c1cc2c(Nc3ccc4scnc4c3)ccnc2cc1O[C@@H]1CCOC1 [A15]
[1]
  fraction unbound at 5 h, 1 μM: 0.059
[2]
  CLint scaled at 1 μM: 49.5 mL/min/kg
  half-life at 1 μM: 50.2 min
Caco-2 permeability test; A-B
  Papp A→B at 90 min: 5.36 ×10⁻⁶ cm/s
Caco-2 permeability test; B-A
  Papp B→A at 90 min: 35 ×10⁻⁶ cm/s
Caco-2 permeability test; [3]
  efflux ratio at 90 min: 6.53

## COCCOc1cc2nccc(Nc3ccc4scnc4c3)c2cc1P(C)(C)=O [A8]
[2]
  CLint scaled at 1 μM: 25.9 mL/min/kg
  half-life at 1 μM: 95.7 min
Caco-2 permeability test; A-B
  Papp A→B at 90 min: 11.9 ×10⁻⁶ cm/s
Caco-2 permeability test; B-A
  Papp B→A at 90 min: 35.6 ×10⁻⁶ cm/s
Caco-2 permeability test; [3]
  efflux ratio at 90 min: 2.98

## CC1(COc2cc3nccc(Nc4ccc5scnc5c4)c3cc2P(C)(C)=O)COC1 [A9]
[2]
  CLint scaled at 1 μM: 63.9 mL/min/kg
  half-life at 1 μM: 38.9 min
Caco-2 permeability test; A-B
  Papp A→B at 90 min: 7.85 ×10⁻⁶ cm/s
Caco-2 permeability test; B-A
  Papp B→A at 90 min: 46.5 ×10⁻⁶ cm/s
Caco-2 permeability test; [3]
  efflux ratio at 90 min: 5.92

## CP(C)(=O)c1cc2c(Nc3ccc4scnc4c3)ccnc2cc1OC(F)(F)F [A24]
[1]; rat
  protein binding in rat (in words): high protein binding
[1]
  fraction unbound at 5 h, 1 μM: 0.001
Caco-2 permeability test; A-B, test at 2 μM
  Papp A→B at 90 min, 2 μM: 16.9 ×10⁻⁶ cm/s
Caco-2 permeability test; B-A, test at 2 μM
  Papp B→A at 90 min, 2 μM: 26.6 ×10⁻⁶ cm/s
Caco-2 permeability test; efflux ratio, test at 2 μM, read-out: Caco-2 Permeability B-A/A-B
  efflux ratio at 90 min, 2 μM: 1.58
